Test results from US12497405B2, “Bicyclic heterocycle compounds methods of use thereof for the treatment of herpes viruses” (Merck Sharp & Dohme LLC, priority 2019, dated 2025).

What was measured:
Assay type in all cases: cell-based
HSV2 = assay: Viral qPCR assay, HSV2; details: Human alphaherpesvirus 2, 72 h, infected cells, viral genome copies by qPCR normalized to PPIA, read-out: HSV2 Cell EC50
Procedure: (§1) MRC5 cells, Vero cells, and MeWo cells were obtained from ATCC, and were maintained at 37° C./5% CO2/90% relative humidity in Minimal Essential Medium with 10% fetal bovine serum, […] L-glutamine, 100 units/ml penicillin and 100 ug/ml streptomycin. Assay plates were prepared by dispensing compounds dissolved in DMSO into wells of 384 well collagen-coated plates using an ECHO acoustic dispenser. Each test compound was tested in a 10-point, serial 3-fold dilution. Controls included uninfected cells and infected cells treated only with DMSO. Assays were initiated by mixing selected cells, in suspension, with virus, and dispensing 50 μl/well infected cells to pre-plated compounds. Plates were incubated at 37° C./5% CO2/90% relative humidity for ˜72 hrs to permit genomic replication, and infected cells were lysed by the addition of an equal volume of lysis buffer (10 mM Tris-HCl, pH8, 50 mM KCl, 2 mM MgCl2, 0.45% NP-40, 0.45% Tween-20, and 100 µg/ml proteinase K). An aliquot of the lysate was then transferred to a 384-well PCR plate and incubated at 56° C. for 1 hour, and then at 95° C. for 10 minutes. Levels of the selected viral gene and of the cellular control, PPIA, were measured in separate 10 μl qPCR assays using TaqMan® Gene Expression Master Mix (Applied Biosystems), and an 7900HT Fast Real-Time PCR System with 384-Well Block Module. 7-point, serial 10-fold dilutions of a plasmid standard were run on each plate to generate a standard curve, and genome copies numbers were calculated by plotting experimental Ct onto linear regression of the standard curve. Viral genome copy numbers were normalized by cellular control copy number, and compound effects were normalized to the window defined by the controls. Calculated % effects were fit using a 4-parameter algorithm, and EC50 was reported.

HSV1 = assay: Viral qPCR assay, HSV1; details: Human alphaherpesvirus 1, 72 h, infected cells, viral genome copies by qPCR normalized to PPIA, read-out: HSV1 Cell EC50
Procedure: as §1

CMV = assay: Viral qPCR assay, CMV; details: Human betaherpesvirus 5, 72 h, infected cells, viral genome copies by qPCR normalized to PPIA, read-out: CMV Cell EC50
Procedure: as §1

Row | SMILES | EC50 (HSV2) [nM] | EC50 (HSV1) [nM] | EC50 (CMV) [nM]
1 | Cc1nccc(-c2cc3nc(C)n(Cc4ccc(Cl)cc4)c(=O)c3cc2O[C@H]2CCN3C(=O)OC[C@@H]3C2)n1 [Example 131] | 157 | 223 | 102
2 | COc1cnnc(-c2cc3nc(C)n(Cc4ccc(Cl)cc4)c(=O)c3cc2O[C@H]2CCN3C(=O)OC[C@@H]3C2)c1 [Example 132] | 822 | 1470 | 1470
3 | O=C1OC[C@@H]2C[C@@H](Oc3cc4c(=O)n(Cc5ccc(Cl)cc5)c(CNCC(F)(F)F)nc4cc3-c3cnn(C(F)F)c3)CCN12 [Example 133] | 106 | 238 | 167
4 | O=C1OC[C@@H]2C[C@@H](Oc3cc4c(=O)n(Cc5ccc(Cl)cc5)c(OCCN5CCC5)nc4cc3-c3cnn(C(F)F)c3)CCN12 [Example 134] | 98 | 171 | 119
5 | O=C1OC[C@@H]2C[C@@H](Oc3cc4c(=O)n(Cc5ccc(Cl)cc5)c(OCC5CC5)nc4cc3-c3cnn(C(F)F)c3)CCN12 [Example 135] | 649 | 799 | 939
6 | Cc1cnnc(-c2cc3nc(C)n(Cc4ccc(Cl)cc4)c(=O)c3cc2O[C@H]2CCN3C(=O)OC[C@@H]3C2)c1 [Example 136] | 2150 | 1720 | 826
7 | CC(C)(O)Cc1nc2cc(-c3cnn(C(F)F)c3)c(O[C@H]3CCN4C(=O)OC[C@@H]4C3)cc2c(=O)n1Cc1ccc(Cl)cc1 [Example 140] | 3760 | 4310 | 2660
8 | O=C1OC[C@@H]2C[C@@H](Oc3cc4c(=O)n(Cc5ccc(Cl)cc5)c(N5CCOCC5)nc4cc3-c3cnn(C(F)F)c3)CCN12 [Example 142] | 38 | 154 | 129
9 | Cc1nc2cc(-c3cnc(N)nn3)c(O[C@H]3CCN4C(=O)OC[C@@H]4C3)cc2c(=O)n1Cc1ccc(Cl)cc1 [Example 144] | 319 | 189 | 137
10 | O=C1OC[C@@H]2C[C@@H](Oc3cc4c(=O)n(Cc5ccc(Cl)cc5)c(N5CC(O)C5)nc4cc3-c3cnn(C(F)F)c3)CCN12 [Example 145] | 112 | 108 | 101
11 | Cc1nc2cc(-c3nn4ccnc4s3)c(O[C@H]3CCN4C(=O)OC[C@@H]4C3)cc2c(=O)n1Cc1ccc(C#N)cc1 [Example 146] | 143 | 93 | 67
12 | COc1nc2cc(-c3cnn(C(F)F)c3)c(O[C@H]3CCN4C(=O)OC[C@@H]4C3)cc2c(=O)n1Cc1ccc(Cl)cc1 [Example 148] | 78 | 213 | 275
13 | O=C1OC[C@@H]2C[C@@H](Oc3cc4c(=O)n(Cc5ccc(Cl)cc5)c(O)nc4cc3-c3cnn(C(F)F)c3)CCN12 [Example 150] | 88 | 53 | 79
14 | Cc1nc2cc(-c3cnc(C(C)(C)O)nc3)c(O[C@H]3CCN4C(=O)OC[C@@H]4C3)cc2c(=O)n1Cc1ccc(Cl)cc1 [Example 154] | 485 | 403 | 180
15 | Cc1nc2cc(-c3cnn(C(F)F)c3)c(O[C@H]3CCN4C(=O)OC[C@@H]4C3)cc2c(=O)n1Cc1ccc(Cl)c(CO)c1 [Example 155] | 5400 | 5100 | 1340
16 | N[C@H](Cc1nc2cc(-c3cnn(C(F)F)c3)c(O[C@H]3CCN4C(=O)OC[C@@H]4C3)cc2c(=O)n1Cc1ccc(Cl)cc1)C(F)(F)F [Example 156] | 93 | 176 | 140
17 | N[C@@H](Cc1nc2cc(-c3cnn(C(F)F)c3)c(O[C@H]3CCN4C(=O)OC[C@@H]4C3)cc2c(=O)n1Cc1ccc(Cl)cc1)C(F)(F)F [Example 157] | 81 | 176 | 170
